Measurements: ChEMBL document CHEMBL1201862, “PubChem BioAssay data set” (2004)
Activity calls are given as the source filed them.

Experiments:
[1] = A Cell Based Secondary Assay To Explore Cytotoxicity of Compounds that Sensitize Mycobacterium Tuberculosis to Beta-Lactam Antibiotics.; assay type: functional
Cytochrome P450 2C9 = Cytochrome P450 2C9 (Homo sapiens, UniProt P11712); settings: Potency
[2] = Luminescence Cell-Based Dose Response HTS to Identify Activators of Luciferase Translation or Activity in H4 […] Cells. [Related pubchem assays: 1829 (Project Summary), 1814 (Primary HTS)]; assay type: functional
[3] = target: T1, Methionyl-tRNA synthetase, putative (Trypanosoma brucei brucei, UniProt Q38C91); assay type: functional, Trypanosoma brucei brucei strain 927/4 GUTat10.1
T1 sequence (Q38C91 whole entry): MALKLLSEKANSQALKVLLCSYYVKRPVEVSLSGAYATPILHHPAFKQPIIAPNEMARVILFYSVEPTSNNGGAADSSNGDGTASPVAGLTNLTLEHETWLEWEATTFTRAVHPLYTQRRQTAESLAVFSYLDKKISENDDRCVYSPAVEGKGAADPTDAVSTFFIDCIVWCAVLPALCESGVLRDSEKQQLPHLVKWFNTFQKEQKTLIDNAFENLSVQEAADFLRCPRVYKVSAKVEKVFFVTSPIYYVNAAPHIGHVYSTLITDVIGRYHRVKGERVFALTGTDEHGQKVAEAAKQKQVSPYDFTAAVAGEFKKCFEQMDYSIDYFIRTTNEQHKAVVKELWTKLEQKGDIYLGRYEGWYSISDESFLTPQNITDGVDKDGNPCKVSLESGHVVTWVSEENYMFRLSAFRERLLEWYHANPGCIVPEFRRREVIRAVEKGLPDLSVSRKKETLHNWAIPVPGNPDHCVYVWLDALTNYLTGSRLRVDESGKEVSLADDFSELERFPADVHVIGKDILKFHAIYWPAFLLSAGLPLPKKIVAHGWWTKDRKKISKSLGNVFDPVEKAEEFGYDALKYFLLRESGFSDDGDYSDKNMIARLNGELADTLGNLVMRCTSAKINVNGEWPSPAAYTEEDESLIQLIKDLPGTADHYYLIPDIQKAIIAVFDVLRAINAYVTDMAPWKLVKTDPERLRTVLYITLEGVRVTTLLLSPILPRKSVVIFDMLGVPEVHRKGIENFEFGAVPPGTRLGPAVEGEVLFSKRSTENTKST

[4] = target: T1, Methionyl-tRNA synthetase, putative; assay type: functional, Trypanosoma brucei brucei strain 927/4 GUTat10.1; remark: listed apart in the source
[5] = target: Dual specificity tyrosine-phosphorylation-regulated kinase 1A (Rattus norvegicus, UniProt Q63470); assay type: biochemical, Homo sapiens
[6] = Luminescence Cell-Based Dose Confirmation HTS to Identify Activators of 5'UTR Stem-Loop Driven Alpha-Synuclein mRNA Translation in H4 Neuroglioblastoma Cells. [Related pubchem assays: 1829 (Project Summary), 1814 (Primary HTS)]; assay type: functional
H4 = experiment: Luminescence Cell-Based Dose Response HTS to Identify Activators of 5'UTR Stem-Loop Driven Prion Protein mRNA Translation in H4 Neuroglioblastoma Cells. [Related pubchem assays: 1829 (Project Summary), 1814 (Primary HTS)]; assay type: functional; settings: Homo sapiens
[7] = Counterscreen for inhibitors of Trypanosoma brucei methionyl tRNA synthetase (MetRS): Luminescence-based cell-based high throughput dose response assay to identify compounds that are cytotoxic to Jurkat human T lymphocyte cells.; assay type: functional
[8] = target: Protein-tyrosine kinase 2-beta (Homo sapiens, UniProt Q14289);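 further: potency of inhibitors of PYK2 kinase phosphorylation of poly-GT substrate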
Beta-galactosidase [9] = target: T2, Beta-galactosidase (Escherichia coli, UniProt Q8VNN2); assay type: functional
Beta-galactosidase [10] = target: T2, Beta-galactosidase; experiment: beta-galactosidase enzyme inhibitors and activators, dose response, artefact control for CCR6 antagonist project, biochemical, E. coli enzyme, set 3 (AID 504712); assay type: functional
[11] = target: T3, Kappa-type opioid receptor (Homo sapiens, UniProt P41145); assay type: functional
Streptococcus = experiment: Group A Streptococcus viability loss, dose response, counter-screen for streptokinase expression inhibitor project, luminescence, BacTiterGlo (AID 1915); assay type: functional, organism-based; settings: Streptococcus;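 further: potency for reduction of bacterial viability or growth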
Streptokinase A = target: T4, Streptokinase A (Streptococcus pyogenes serotype M1, UniProt P10520); experiment: S. pyogenes streptokinase expression inhibitors, potency, dose response, plasminogen activation absorbance, OD405 (AID 1914); assay type: functional, Streptococcus pyogenes M1 GAS;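 further: secreted streptokinase activity via plasminogen activation per viability signal from cell pellet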
T4 sequence (P10520 whole entry): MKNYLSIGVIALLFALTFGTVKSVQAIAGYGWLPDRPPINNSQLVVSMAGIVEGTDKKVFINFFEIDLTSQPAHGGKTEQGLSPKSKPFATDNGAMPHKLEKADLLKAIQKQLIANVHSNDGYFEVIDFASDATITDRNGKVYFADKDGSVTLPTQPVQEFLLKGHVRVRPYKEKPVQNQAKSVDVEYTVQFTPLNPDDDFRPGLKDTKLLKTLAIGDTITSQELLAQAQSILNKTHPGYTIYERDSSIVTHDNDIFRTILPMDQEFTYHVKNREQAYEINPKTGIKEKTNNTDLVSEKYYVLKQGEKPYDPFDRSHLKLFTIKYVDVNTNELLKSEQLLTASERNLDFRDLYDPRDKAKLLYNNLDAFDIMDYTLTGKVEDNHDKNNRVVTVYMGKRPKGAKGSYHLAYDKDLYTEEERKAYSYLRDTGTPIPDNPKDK

[12] = tested on: Streptococcus sp. 'group A'; experiment: growth inhibition of control SK(-) GAS strain, dose response, counter-screen for streptokinase expression inhibitor project, luminescence, kanamycin, BacTiterGlo, confirmation (AID 1900); assay type: functional, organism-based; settings: Streptococcus sp. 'group A'
[13] = target: T3, Kappa-type opioid receptor; assay type: functional; remark: listed apart in the source
Trypsin = Trypsin (Sus scrofa, UniProt P00761); experiment: porcine trypsin inhibitors, dose response, selectivity assay for Rce1 protease inhibitor project, biochemical, quenched peptide fluorescence, cherry-pick (AID 488789)
INS1 = experiment: beta cell apoptosis inhibitors, cytokine rescue, dose response, luminescence, retest (AID 449756); assay type: functional, cell-based; settings: Rattus norvegicus;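 further: cell death triggered by IL-1 beta plus TNF-alpha plus IFN-gamma mixture; protective hits raise ATP signal compared with cytokine alone wells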
[14] = microbe, parasite or virus in culture; assay type: functional; settings: Mycobacterium tuberculosis
[15] = Luminescence Cell-Based Dose Retest to Confirm Inhibitors of Cancer Stem Cells. [Related pubchem assays (depositor defined):AID2717, AID2721]; assay type: functional, Homo sapiens; settings: Homo sapiens
[16] = target: DNA dC->dU-editing enzyme APOBEC-3A (Homo sapiens, UniProt P31941); experiment: APOBEC3A DNA deaminase inhibitors, dose response, biochemical (AID 504722); assay type: functional
[17] = target: DNA dC->dU-editing enzyme APOBEC-3G (Homo sapiens, UniProt Q9HC16); experiment: Dose Response confirmation of small molecule APOBEC3G DNA Deaminase Inhibitors via a fluorescence-based single-stranded DNA deaminase assay. [Related pubchem assays (depositor defined):AID493012, AID493028]; assay type: functional
[18] = target: FAD-linked sulfhydryl oxidase ALR (Homo sapiens, UniProt P55789); experiment: inhibitors of human ALR sulfhydryl oxidase, dose response, biochemical, H2O2 detection, luminescence, cherry-pick (AID 493248)
[19] = target: Glucose-6-phosphate 1-dehydrogenase (Homo sapiens, UniProt P11413); experiment: human G6PD enzyme inhibitors, dose response, selectivity assay for P. falciparum G6PD inhibitor project, biochemical, fluorescence (AID 504792); assay type: functional
Large T antigen = Large T antigen (Simian virus 40, UniProt P03070); assay type: functional, Betapolyomavirus macacae;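 further: Confirmatory-stage PubChem screen for compounds that inhibit SV40 T antigen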
Cytochrome P450 3A4 [20] = target: T5, Cytochrome P450 3A4 (Homo sapiens, UniProt P08684); settings: Potency
Estrogen receptor beta [21] = target: T6, Estrogen receptor beta (Homo sapiens, UniProt Q92731); experiment: ERβ–SRC-3 coactivator interaction inhibitors, confirmation, orthogonal assay, biochemical, ELISA, streptavidin-HRP readout (AID 1060)
Estrogen receptor beta [22] = target: T6, Estrogen receptor beta
Estrogen receptor = target: T7, Estrogen receptor (Homo sapiens, UniProt P03372);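 further: potency for inhibiting coactivator peptide recruitment to the receptor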
T7 sequence (P03372 whole entry): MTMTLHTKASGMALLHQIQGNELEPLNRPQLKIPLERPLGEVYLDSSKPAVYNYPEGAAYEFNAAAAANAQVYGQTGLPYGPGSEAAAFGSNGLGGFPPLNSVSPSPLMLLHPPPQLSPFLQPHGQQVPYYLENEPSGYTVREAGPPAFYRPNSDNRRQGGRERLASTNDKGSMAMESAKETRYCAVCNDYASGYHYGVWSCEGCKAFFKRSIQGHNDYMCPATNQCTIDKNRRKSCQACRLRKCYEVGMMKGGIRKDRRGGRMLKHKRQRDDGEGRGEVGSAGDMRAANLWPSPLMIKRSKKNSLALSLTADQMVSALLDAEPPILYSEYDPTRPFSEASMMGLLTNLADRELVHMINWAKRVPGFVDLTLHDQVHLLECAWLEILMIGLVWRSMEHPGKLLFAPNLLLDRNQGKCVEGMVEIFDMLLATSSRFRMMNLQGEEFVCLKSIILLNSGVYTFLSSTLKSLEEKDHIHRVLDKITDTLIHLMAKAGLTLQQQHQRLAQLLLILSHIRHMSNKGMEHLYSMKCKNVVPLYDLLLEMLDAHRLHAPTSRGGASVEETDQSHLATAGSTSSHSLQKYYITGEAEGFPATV

Cytochrome P450 3A4 [23] = target: T5, Cytochrome P450 3A4
[24] = target: T8, Voltage-gated N-type calcium channel alpha-1B subunit/Amyloid beta A4 precursor protein-binding family A member 1 (Homo sapiens, UniProt Q00975+Q02410); assay type: protein assay
SUMO-activating enzyme [25] = target: T9, SUMO-activating enzyme (Homo sapiens, UniProt Q9UBT2); experiment: inhibitors of in vitro SUMOylation cascade, primary screen, biochemical, HTRF, uHTS (AID 2006); assay type: protein-complex assay
SUMO-activating enzyme [26] = target: T9, SUMO-activating enzyme; experiment: SUMOylation inhibitor hit validation, confirmation, SUMOylation inhibitor project, biochemical, AlphaScreen (AID 2018); assay type: functional
[27] = target: T8, Voltage-gated N-type calcium channel alpha-1B subunit/Amyloid beta A4 precursor protein-binding family A member 1; assay type: protein assay; remark: listed apart in the source
[28] = THP-1 cell cytotoxicity, dose response, cytotoxicity control for non-replicating M. tuberculosis project (AID 489025); assay type: functional
Nonstructural protein 1 = Nonstructural protein 1 (Influenza A virus, UniProt Q194T2); assay type: functional, Influenza A virus (A/California/07/2009(H1N1))
[29] = Vero E6 cell cytotoxicity, dose response, cytotoxicity control for non-replicating M. tuberculosis project, secondary assay (AID 492998); assay type: functional, VeroE6; settings: Vero C1008
cells = assay type: functional

DNA dC->dU-editing enzyme APOBEC-3G, sequence (Q9HC16 whole entry): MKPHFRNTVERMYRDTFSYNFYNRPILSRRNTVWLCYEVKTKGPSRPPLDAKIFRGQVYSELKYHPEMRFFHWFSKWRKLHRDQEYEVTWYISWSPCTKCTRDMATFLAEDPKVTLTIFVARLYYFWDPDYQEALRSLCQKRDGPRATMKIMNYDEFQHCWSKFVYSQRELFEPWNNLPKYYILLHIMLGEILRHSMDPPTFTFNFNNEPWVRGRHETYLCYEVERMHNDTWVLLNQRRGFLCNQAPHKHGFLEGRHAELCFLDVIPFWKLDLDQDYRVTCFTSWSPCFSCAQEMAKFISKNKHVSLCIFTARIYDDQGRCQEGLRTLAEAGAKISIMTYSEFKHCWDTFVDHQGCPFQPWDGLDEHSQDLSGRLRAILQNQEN
Cytochrome P450 2C9, sequence (P11712 whole entry): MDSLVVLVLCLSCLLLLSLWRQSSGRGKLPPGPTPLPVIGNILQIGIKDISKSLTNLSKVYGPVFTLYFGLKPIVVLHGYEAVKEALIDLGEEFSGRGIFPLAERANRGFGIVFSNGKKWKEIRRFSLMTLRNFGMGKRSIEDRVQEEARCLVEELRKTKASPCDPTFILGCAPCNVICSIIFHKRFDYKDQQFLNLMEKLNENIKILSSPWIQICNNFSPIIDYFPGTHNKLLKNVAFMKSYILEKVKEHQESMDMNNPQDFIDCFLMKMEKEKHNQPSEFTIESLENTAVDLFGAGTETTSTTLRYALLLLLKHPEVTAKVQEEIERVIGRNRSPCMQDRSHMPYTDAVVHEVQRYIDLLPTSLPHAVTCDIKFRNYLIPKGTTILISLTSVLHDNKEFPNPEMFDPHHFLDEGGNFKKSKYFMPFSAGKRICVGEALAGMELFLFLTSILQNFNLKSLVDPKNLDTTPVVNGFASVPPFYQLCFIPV
T2 sequence (Q8VNN2 whole entry): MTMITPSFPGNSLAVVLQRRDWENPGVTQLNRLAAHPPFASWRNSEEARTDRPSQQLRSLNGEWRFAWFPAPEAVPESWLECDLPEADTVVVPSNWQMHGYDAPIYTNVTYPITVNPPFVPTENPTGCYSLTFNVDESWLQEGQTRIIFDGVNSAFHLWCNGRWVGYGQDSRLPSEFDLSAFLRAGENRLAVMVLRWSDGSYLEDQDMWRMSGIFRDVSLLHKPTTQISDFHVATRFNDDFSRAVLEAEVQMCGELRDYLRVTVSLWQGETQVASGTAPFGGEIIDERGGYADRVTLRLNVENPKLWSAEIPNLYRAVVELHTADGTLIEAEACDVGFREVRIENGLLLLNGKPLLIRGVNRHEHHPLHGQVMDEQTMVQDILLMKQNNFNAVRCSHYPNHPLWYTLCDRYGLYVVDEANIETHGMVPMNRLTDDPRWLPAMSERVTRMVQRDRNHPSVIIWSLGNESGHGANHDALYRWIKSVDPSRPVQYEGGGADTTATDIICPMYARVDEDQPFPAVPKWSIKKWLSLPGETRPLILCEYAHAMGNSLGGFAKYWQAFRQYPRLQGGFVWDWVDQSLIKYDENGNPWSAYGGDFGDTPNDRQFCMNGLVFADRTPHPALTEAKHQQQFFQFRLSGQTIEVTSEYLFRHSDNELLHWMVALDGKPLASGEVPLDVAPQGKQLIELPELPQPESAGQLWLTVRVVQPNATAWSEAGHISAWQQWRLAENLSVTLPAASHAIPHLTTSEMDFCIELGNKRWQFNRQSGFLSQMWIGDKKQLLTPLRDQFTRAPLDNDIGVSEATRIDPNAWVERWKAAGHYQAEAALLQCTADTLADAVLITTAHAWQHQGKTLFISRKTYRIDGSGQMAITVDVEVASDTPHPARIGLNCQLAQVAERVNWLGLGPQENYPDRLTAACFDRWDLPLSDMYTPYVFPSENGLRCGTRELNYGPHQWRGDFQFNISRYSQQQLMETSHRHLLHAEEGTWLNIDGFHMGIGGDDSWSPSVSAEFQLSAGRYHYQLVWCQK
Glucose-6-phosphate 1-dehydrogenase, sequence (P11413 whole entry): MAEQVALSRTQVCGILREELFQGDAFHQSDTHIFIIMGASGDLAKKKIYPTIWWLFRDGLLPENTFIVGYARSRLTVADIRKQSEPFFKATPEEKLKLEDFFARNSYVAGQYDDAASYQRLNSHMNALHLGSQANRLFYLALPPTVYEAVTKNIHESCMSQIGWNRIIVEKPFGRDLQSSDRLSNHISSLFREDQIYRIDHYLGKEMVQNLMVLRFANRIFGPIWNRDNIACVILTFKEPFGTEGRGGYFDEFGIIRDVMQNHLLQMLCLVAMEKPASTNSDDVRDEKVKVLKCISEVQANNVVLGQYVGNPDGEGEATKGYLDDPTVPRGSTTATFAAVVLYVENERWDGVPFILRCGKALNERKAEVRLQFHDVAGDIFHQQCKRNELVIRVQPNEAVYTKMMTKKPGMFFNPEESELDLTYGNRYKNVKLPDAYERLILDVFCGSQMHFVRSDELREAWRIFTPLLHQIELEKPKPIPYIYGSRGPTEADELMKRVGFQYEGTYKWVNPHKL
T6 sequence (Q92731 whole entry): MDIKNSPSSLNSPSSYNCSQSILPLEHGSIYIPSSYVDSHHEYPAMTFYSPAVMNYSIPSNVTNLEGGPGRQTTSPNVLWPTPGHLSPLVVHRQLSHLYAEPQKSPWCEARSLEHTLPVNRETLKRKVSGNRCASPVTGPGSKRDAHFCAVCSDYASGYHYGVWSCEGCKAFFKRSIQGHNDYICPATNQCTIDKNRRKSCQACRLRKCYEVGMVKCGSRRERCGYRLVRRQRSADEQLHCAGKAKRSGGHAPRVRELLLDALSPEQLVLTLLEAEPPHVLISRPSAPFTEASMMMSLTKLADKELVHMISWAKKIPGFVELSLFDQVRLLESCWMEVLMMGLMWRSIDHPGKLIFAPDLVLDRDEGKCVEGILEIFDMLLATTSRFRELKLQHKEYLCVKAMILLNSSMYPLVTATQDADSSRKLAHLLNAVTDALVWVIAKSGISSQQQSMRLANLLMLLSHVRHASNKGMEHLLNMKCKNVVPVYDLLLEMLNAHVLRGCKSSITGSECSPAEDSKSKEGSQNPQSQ
DNA dC->dU-editing enzyme APOBEC-3A, sequence (P31941 whole entry): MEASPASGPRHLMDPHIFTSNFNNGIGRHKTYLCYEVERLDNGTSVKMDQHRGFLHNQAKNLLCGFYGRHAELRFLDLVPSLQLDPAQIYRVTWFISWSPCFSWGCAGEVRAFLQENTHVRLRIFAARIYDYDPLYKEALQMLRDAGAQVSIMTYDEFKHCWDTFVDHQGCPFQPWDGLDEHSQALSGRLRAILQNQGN
T3 sequence (P41145 whole entry): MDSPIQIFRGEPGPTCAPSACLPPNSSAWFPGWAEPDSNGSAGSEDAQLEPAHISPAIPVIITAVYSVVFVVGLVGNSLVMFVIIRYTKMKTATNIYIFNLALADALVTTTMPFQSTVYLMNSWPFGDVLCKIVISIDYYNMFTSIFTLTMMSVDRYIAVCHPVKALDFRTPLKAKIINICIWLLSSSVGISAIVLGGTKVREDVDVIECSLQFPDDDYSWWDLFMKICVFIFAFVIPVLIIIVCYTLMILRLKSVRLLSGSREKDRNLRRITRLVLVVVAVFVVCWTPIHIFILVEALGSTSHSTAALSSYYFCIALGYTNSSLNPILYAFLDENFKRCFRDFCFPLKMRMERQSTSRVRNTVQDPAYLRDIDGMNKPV
T5 sequence (P08684 whole entry): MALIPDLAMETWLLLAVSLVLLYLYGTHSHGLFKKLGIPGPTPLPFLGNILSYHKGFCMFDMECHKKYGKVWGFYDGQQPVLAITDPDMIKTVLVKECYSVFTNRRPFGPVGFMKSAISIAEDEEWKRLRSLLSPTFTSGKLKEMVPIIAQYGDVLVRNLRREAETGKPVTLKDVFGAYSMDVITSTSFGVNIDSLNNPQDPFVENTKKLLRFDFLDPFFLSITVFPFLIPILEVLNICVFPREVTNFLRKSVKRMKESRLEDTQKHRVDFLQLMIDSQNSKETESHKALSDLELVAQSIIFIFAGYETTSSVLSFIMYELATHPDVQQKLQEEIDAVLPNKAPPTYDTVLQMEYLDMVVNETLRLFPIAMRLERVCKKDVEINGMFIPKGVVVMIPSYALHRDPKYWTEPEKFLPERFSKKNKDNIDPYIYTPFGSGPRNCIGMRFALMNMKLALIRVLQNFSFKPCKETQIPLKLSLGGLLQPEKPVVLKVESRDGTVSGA
FAD-linked sulfhydryl oxidase ALR, sequence (P55789 whole entry): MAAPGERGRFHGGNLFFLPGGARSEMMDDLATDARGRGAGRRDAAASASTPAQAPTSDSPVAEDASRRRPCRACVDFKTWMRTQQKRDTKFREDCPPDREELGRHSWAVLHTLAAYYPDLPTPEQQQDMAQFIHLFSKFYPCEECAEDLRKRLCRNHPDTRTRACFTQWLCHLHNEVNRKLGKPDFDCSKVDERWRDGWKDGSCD
Large T antigen, sequence (P03070 whole entry): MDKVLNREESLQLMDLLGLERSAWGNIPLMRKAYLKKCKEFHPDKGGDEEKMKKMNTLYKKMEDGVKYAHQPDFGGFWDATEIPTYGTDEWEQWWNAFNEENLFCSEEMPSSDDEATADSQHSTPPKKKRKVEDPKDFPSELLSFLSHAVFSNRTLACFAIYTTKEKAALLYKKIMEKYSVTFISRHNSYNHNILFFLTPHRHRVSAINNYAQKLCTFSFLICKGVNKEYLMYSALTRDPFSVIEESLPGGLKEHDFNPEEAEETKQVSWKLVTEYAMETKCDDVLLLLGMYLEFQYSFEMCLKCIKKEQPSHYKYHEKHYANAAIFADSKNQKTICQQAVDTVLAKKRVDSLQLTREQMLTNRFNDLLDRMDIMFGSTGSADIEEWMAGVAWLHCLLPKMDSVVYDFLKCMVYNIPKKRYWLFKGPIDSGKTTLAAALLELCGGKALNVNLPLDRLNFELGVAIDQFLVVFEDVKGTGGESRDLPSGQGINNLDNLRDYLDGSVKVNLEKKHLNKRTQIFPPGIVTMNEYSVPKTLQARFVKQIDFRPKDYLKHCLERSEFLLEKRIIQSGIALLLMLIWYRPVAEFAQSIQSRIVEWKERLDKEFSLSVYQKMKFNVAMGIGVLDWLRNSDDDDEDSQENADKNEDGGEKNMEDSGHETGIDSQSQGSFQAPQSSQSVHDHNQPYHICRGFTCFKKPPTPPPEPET

CCN(CC)c1ccc(C(=O)n2cnc3ccccc32)cc1
CC50 [1]: > 40 µM (active)

CC(C)[C@@]1(NC(=O)[C@@H]2C=C3c4cccc5[nH]cc(c45)C[C@@H]3N(C)C2)O[C@]2(O)[C@H]3CCCN3C(=O)[C@H](Cc3ccccc3)N2C1=O
AC50 (Cytochrome P450 2C9): 10 µM (inconclusive)

Cc1cc(SCC(=O)c2ccccc2)n2ncc(-c3ccccc3)c2n1
CC50 [1]: 25.8 µM (active)

c1ccc2c3c([nH]c2c1)-c1n[nH]cc1CC3
EC50 [2]: 18.7 µM (active)
IC50 [3]: 52.1 µM (inactive)
IC50 [4]: 26.7 µM (inactive)
AC50 [5]: 3.79 µM (active)
EC50 [6]: > 120 µM (not active)
EC50 (H4): > 120 µM (not active)
IC50 [7]: 83.4 µM (inactive)
IC50 [8]: 10.5 µM (not active)

Cc1cc2nc(N3C(=O)CNC3=S)sc2cc1C
EC50 (Beta-galactosidase [9]): > 31.5 µM (inactive)
IC50 (Beta-galactosidase [10]): > 66.6 µM (inactive)
IC50 [11]: > 32 µM
EC50 (Streptococcus): 10.6 µM (active)
EC50 (Streptokinase A): > 150 µM (not active)
EC50 [12]: 3.98 µM (active)
IC50 [13]: 8.55 µM (active)

C=CCC1C=CC(Oc2ccc(F)cc2C)C(CO)O1 (stereo not drawn)
AC50 (Cytochrome P450 2C9): 3.98 µM (inconclusive)

CC1CCc2c(sc(NC(=O)COC(=O)c3ccccc3NCc3ccco3)c2C#N)C1 (stereo not drawn)
AC50 (Trypsin): 9.07 µM (active)

CN(/N=C/c1cc(Br)cc(Br)c1O)c1cccc(C(F)(F)F)n1
AC50 (INS1): 10.7 µM (active)
CC50 [14]: 17.6 µM (active)
IC50 (Beta-galactosidase [10]): > 66.6 µM (inactive)
AC50 [15]: 5.94 µM (active)
EC50 (Streptococcus): 9.95 µM (active)
EC50 (Streptokinase A): > 150 µM (not active)
EC50 [12]: 0.58 µM (active)

COc1cc(/C=N/n2c(S)nnc2COc2ccccc2)cc(Br)c1O
IC50 [16]: > 100 µM (inactive)
IC50 [17]: 2.19 µM (active)
AC50 [18]: 2.65 µM (active)

Cc1cc(C)nc(SSc2nc(C)cc(C)n2)n1
IC50 [16]: > 100 µM (inactive)
IC50 [17]: 5.1 µM (active)
IC50 [19]: > 80 µM (inactive)
IC50 (Large T antigen): 28.2 µM (active)

CC1CCC2C(=O)N3C(CCC(C)[C@H]3c3ccccc3Br)C(=O)N2C1c1ccccc1Br (stereo partly drawn)
AC50 (Cytochrome P450 2C9): 6.31 µM (inconclusive)
AC50 (Cytochrome P450 3A4 [20]): 1.26 µM (inconclusive)

O=C(COC(=O)c1cccc(S(=O)(=O)N2CCc3ccccc3C2)c1)NCc1ccco1
IC50 (Estrogen receptor beta [21]): 0.0242 µM (not active)
IC50 (Estrogen receptor beta [22]): > 50 µM (not active)
IC50 (Estrogen receptor): 25 µM (active)

Cc1ccc(NNS(=O)(=O)c2ccc(C)cc2)cc1
AC50 (Cytochrome P450 3A4 [23]): 28.2 µM (inconclusive)
IC50 [17]: 37.9 µM (active)
IC50 [19]: > 80 µM (inactive)

CCc1ccc2nc(NC(=O)c3ccc4c(O)nc(CN5CCOCC5)nc4c3)sc2c1
IC50 [24]: 6.59 µM (active)
IC50 (SUMO-activating enzyme [25]): 3.54 µM (active)
IC50 (SUMO-activating enzyme [26]): 7.19 µM (active)
IC50 [27]: > 50 µM (inactive)
IC50 (Estrogen receptor): 8.23 µM (active)

CCOc1ccc(C(=O)N/N=C/c2cccc3cccnc23)cc1
CC50 [28]: 11.5 µM (active)
IC50 (Nonstructural protein 1): 11.4 µM (active)
CC50 [29]: > 20 µM (active)
IC50 (cells): 2.75 µM (active)
IC50 (Beta-galactosidase [10]): > 66.6 µM (inactive)

CCC(C)C(NC(N)=O)C(=O)Nc1ccc(OCc2ccccc2)cc1 (stereo not drawn)
CC50 [1]: > 40 µM (active)
